{"source": "paper PMC7151106", "about": "(Pharmaceutics, 2020)", "key": {"OAT3": {"system": "T1, OAT3", "T1 construct": "host or cells: HEK293", "experiment": "Substrate specificity / uptake in HEK293-OAT3 cells", "assay_type": "in vitro ADME", "conditions": "5 min", "description": "(§1) HEK293-mock cells and HEK293 cells overexpressing OAT1 and OAT3 transporters (HEK293-OAT1 and -OAT3, respectively) were seeded in poly-D-lysine-coated 24-well plates at a density of 4 × 10^5 cells/well and cultured for 24 h in DMEM supplemented with 10% FBS and 5 mM non-essential amino acids at 37 °C in 8% CO2 condition.\n(§2) For each experiment, the growth medium was discarded after 24 h, and the attached cells were washed with pre-warmed HBSS and incubated with pre-warmed HBSS for 20 min at 37 °C. To confirm the functionality of OAT1 and OAT3, we measured the uptake of 0.1 µM [^3H]PAH and 0.1 µM [^3H]ES, representative substrates for OAT1 and OAT3, respectively, into in the HEK293-mock cells and HEK293-OAT1 and -OAT3 cells, respectively, for 5 min in the presence and absence of 20 µM probenecid, a typical inhibitor for both OAT1 and OAT3 [8, 9]. The cells were then washed three times with 500 μL of ice-cold HBSS immediately after placing the plates on ice. Subsequently, cells were lysed with 10% sodium dodecyl sulfate and mixed with Optiphase cocktail solution overnight. The radioactivity of the cell lysate was measured using a liquid scintillation counter (Microbeta 2; Perkin Elmer Inc., Boston, MA, USA).\n(§3) For the concentration dependency in the uptake of DWP16001, the uptake of DWP16001 in a concentration range of 0.5–50 μM dissolved in HBSS was measured for 5 min at 37 °C in the mock cells and HEK293-OAT1 and -OAT3 cells, respectively. After 5 min, the cells were washed three times with 500 μL of ice-cold HBSS immediately after placing the plates on ice.\n(§4) In the concentration-dependent uptake studies, the transporter-mediated uptake of DWP16001 was calculated by the subtraction of the transport rates of DWP16001 into the mock cells from those of the HEK293-OAT1 and -OAT3 cells. Kinetic parameters for the OAT1- and OAT3-mediated transport of DWP16001 were determined using the Michaelis-Menten equation [V = Vmax⋅S/(Km + S)] [10]."}, "OAT1": {"system": "T2, OAT1", "T2 construct": "host or cells: HEK293", "experiment": "Substrate specificity / uptake in HEK293-OAT1 cells", "assay_type": "in vitro ADME", "conditions": "5 min", "description": "as §1, §2, §3, §4"}, "SGLT2 [1]": {"molecular_target": "T3, SGLT2 (Homo sapiens, UniProt P31639)", "T3 construct": "host or cells: CHO", "T3 sequence (P31639 1-672)": "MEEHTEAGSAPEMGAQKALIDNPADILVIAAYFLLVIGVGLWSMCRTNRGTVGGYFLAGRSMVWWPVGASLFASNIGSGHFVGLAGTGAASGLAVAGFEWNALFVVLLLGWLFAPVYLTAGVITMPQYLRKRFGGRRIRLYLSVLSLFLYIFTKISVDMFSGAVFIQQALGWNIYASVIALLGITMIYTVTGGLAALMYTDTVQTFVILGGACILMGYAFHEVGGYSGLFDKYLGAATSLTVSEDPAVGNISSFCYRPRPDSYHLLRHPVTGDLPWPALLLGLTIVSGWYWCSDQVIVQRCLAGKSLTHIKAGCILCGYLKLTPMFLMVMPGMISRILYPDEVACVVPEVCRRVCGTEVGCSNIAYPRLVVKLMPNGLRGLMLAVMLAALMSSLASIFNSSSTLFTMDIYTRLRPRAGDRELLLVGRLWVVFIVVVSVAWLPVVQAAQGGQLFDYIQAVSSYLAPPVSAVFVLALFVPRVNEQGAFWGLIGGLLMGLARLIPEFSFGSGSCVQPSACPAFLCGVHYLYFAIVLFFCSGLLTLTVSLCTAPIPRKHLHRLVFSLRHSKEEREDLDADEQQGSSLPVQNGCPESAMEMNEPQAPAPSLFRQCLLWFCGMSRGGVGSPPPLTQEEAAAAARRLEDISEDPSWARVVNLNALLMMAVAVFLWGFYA", "experiment": "Time dependency of SGLT2 inhibition (preincubation) in CHO-SGLT2 cells", "assay_type": "cell-based", "conditions": "pretreatment 0, 1, 2 h", "description": "After 2 h of incubation, the radioactivity of the cell lysate was measured following the same sample preparation method described above."}, "SGLT2 [2]": {"molecular_target": "T3, SGLT2", "experiment": "Mode of inhibition on SGLT2 (Dixon plots) in CHO-SGLT2 cells", "assay_type": "cell-based", "conditions": "1, 2.5, 5, 50 μM [14C]AMG", "description": "The radioactivity of the cell lysate was measured following the same sample preparation method described above."}, "SGLT2 [3]": {"molecular_target": "T3, SGLT2", "experiment": "Recovery of SGLT2 activity after washout following 24 h exposure in CHO-SGLT2 cells", "assay_type": "cell-based", "conditions": "0.2–200 nM", "description": "After 24 h, the RPMI1640 medium was replaced with pre-warmed fresh RPMI1640 medium and incubated for 1, 2, 3, 5, and 6 h, and proceeded another pre-incubation with Na^+-free buffer for 1 h. Then, after replacing Na^+-free buffer with Na^+ gradient buffer containing 10 µM [^14C]AMG, the uptake of [^14C]AMG into the CHO-SGLT2 cells was measured for 2 h. After 2 h of incubation, the radioactivity of the cell lysate was measured following the same sample preparation method described above."}, "[4]": {"conditions": "mouse, in vivo, po, 1 mg/kg", "experimental": "(§5) An aliquot (30 µL) of each plasma sample was stored at −80 °C until the analysis. […] An aliquot (50 µL) of each kidney homogenate sample was stored at −80 °C until the analysis.\n(§6) For the analysis of SGLT2 inhibitors, aliquots of plasma (30 µL) and kidney homogenate (50 µL) were added to 100 μL of aqueous solution of D4-DWP16001 (IS, 20 ng/mL), and vigorously mixed with 500 μL methyl tert-butyl ether (MTBE) for 15 min. After centrifugation at 16,000 g for 5 min, samples were kept for 1 h at −80 °C to make an aqueous layer freeze. An organic upper layer was transferred to a clean tube and evaporated to dryness under a gentle stream of nitrogen. Then, the dried extract was reconstituted in 150 µL of mobile phase, and a 3 µL aliquot of the reconstituent was injected into a liquid chromatography–tandem mass spectrometry (LC–MS/MS) system.\n(§7) Pharmacokinetic parameters, such as the area under plasma concentration-time curve from zero to infinity (AUC), were calculated from plasma concentration vs time curves using non-compartment analysis with WinNonlin (version 5.1; Pharsights, Cary, NC, USA). The AUC ratios (i.e., ratios of kidney AUC to plasma AUC) were calculated by dividing the AUC of the three SGLT2 inhibitors in the kidney by the plasma AUC values of the three SGLT2 inhibitors."}, "[5]": {"design": "method as in PMID 27430987", "conditions": "cited from earlier work"}, "in vivo": {"experiment": "in vivo", "conditions": "ICR, mouse, po, 1 mg/kg", "experimental": "as §5, §6, §7"}, "SGLT1": {"molecular_target": "T4, SGLT1 (Homo sapiens, UniProt P13866)", "T4 construct": "host or cells: CHO", "T4 sequence (P13866 1-664)": "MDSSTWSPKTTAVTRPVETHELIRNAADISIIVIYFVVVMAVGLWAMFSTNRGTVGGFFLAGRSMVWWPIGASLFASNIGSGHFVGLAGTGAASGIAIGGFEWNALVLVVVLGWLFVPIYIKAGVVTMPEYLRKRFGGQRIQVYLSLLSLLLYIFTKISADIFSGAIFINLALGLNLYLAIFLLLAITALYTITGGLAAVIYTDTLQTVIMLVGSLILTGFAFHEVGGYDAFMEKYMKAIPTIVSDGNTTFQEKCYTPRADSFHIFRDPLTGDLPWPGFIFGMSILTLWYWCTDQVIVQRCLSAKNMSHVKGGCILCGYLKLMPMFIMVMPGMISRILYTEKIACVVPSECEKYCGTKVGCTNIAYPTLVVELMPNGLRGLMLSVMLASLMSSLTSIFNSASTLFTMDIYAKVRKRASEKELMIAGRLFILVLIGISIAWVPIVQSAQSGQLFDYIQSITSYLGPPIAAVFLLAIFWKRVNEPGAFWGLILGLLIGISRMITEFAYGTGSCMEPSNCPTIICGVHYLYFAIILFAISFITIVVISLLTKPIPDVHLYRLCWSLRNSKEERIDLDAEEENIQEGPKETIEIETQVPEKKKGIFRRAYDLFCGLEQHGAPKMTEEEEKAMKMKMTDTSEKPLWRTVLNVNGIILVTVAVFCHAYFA", "experiment": "Inhibition of [14C]AMG uptake in CHO-SGLT1 cells", "assay_type": "cell-based", "conditions": "10 μM [14C]AMG, 2 h", "description": "CHO cells overexpressing SGLT1 and SGLT2 cells (CHO-SGLT1 and -SGLT2) and CHO-mock cells were characterized as previously described. Cells were maintained in RPMI1640 medium supplemented with 10% fetal bovine serum and 200 µg/mL G418 at 37 °C in 5% CO2 conditions. CHO-SGLT1 and -SGLT2 cells were seeded at a density of 1 × 10^5 cells/well in 96-well plates. After 24 h, the growth medium was discarded from the cells, and the cells were washed with pre-warmed Na^+-free buffer (10 mM HEPES, 5 mM Tris, 140 mM choline chloride, 2 mM KCl, 1 mM CaCl2, 1 mM MgCl2, pH7.4) and incubated for 1 h in Na^+-free buffer. After replacing Na^+-free buffer with Na^+ gradient buffer (10 mM HEPES, 5 mM Tris, 140 mM NaCl, 2 mM KCl, 1 mM CaCl2, 1 mM MgCl2, pH7.4) containing 10 µM [^14C]AMG, the uptake of [^14C]AMG into the CHO-mock cells and CHO-SGLT1 and -SLGT2 cells was measured for 0.5, 1, 1.5, 2, and 3 h. After a predetermined incubation time, cells were washed three times with 200 µL of ice-cold Na^+-free buffer immediately after placing the plates on ice. Then, the cells were lysed with 10% SDS, and the cell lysates were mixed with Optiphase cocktail solution. Thereafter, the radioactivity of the cell lysates was measured using a liquid scintillation counter.\nAfter 2 h, cells were washed three times with 200 µL of ice-cold Na^+-free buffer and the cells were lysed with 10% SDS (40 µL), followed by adding Optiphase cocktail solution (200 µL). The radioactivity of the cell lysates was measured using a liquid scintillation counter. The SGLT1 or SGLT2-mediated uptake of [^14C]AMG was calculated by the subtraction of the uptake rates of [^14C]AMG into the mock cells from those of the CHO-SGLT1 and -SLGT2 cells. In the inhibition studies, the percentages of the transport rate of AMG with or without SGLT2 inhibitors were calculated and the data were fitted to an inhibitory effect model. The IC50 (the concentration of the inhibitor to show half-maximal inhibition) values were calculated using Sigma Plot ver.10.0 (Systat Software, Inc.; San Jose, CA, USA)."}}}
{"smiles": "C[C@]12CC[C@@H]3c4ccc(OS(=O)(=O)O)cc4CC[C@H]3[C@@H]1CCC2=O", "note": "[ES, Estrone-3-sulfate]", "values": [{"measurement": "Increase in probe substrate uptake in HEK293-OAT3 vs HEK293-mock cells", "setting": "OAT3; 0.1 μM [3H]ES", "result": 16.4, "unit": "fold"}]}
{"smiles": "CCOc1ccc(Cc2cc([C@@H]3O[C@H](CO)[C@@H](O)[C@H](O)[C@H]3O)ccc2Cl)cc1", "note": "[Dapagliflozin, dapagliflozin]", "values": [{"measurement": "Substrate for OAT1", "setting": "OAT1; 2 μM, HEK293-OAT1 vs mock, ± 20 μM probenecid", "result": "not substrates"}, {"measurement": "Substrate for OAT3", "setting": "OAT3; 2 μM, HEK293-OAT3 vs mock, ± 20 μM probenecid", "result": "not substrates"}, {"measurement": "Time dependency of SGLT2 inhibition", "setting": "SGLT2 [1]", "result": "time-independent"}, {"measurement": "Mode of inhibition on SGLT2", "setting": "SGLT2 [2]", "result": "reversible and competitive"}, {"measurement": "Time after drug removal to recovery of SGLT2 activity to the control level", "setting": "SGLT2 [3]", "result": 4, "unit": "h"}, {"measurement": "AUC72h", "setting": "[4]", "result": "26.30 ± 3.34", "unit": "μg∙h/g tissue"}, {"measurement": "Duration of increased urinary glucose excretion post dose", "setting": "[5]", "result": "≥ 18", "unit": "h"}, {"measurement": "AUC(0-inf)", "setting": "in vivo", "result": "550 ± 144000", "unit": "ng·h/mL"}, {"measurement": "AUC(0-t)", "setting": "in vivo", "result": "480 ± 180", "unit": "ng·h/mL"}, {"measurement": "Cmax", "setting": "in vivo", "result": "275 ± 144", "unit": "ng/mL"}, {"measurement": "Kp", "setting": "in vivo", "result": "64.6 ± 31.8"}, {"measurement": "logP", "setting": "physchem", "result": 2.27}]}
{"smiles": "CO[C@H]1O[C@H](CO)[C@@H](O)[C@H](O)[C@H]1O", "note": "[AMG, methyl a-D-glucopyranoside]", "values": [{"measurement": "AMG uptake into CHO-SGLT1 cells relative to CHO-mock cells", "setting": "SGLT1", "result": 42, "unit": "fold"}]}
{"smiles": "Nc1ccc(C(=O)NCC(=O)O)cc1", "note": "[PAH, Para-aminohipuric acid]", "values": [{"measurement": "Increase in probe substrate uptake in HEK293-OAT1 vs HEK293-mock cells", "setting": "OAT1; 0.1 μM [3H]PAH", "result": 14.7, "unit": "fold"}]}
